# Read-outs that look alike come from different tables or passages of the source.
# How the values were obtained:
# [1] = tested on: pooled human cryopreserved hepatocytes; assay: metabolic stability in pooled human cryopreserved hepatocyte suspension, HPLC-MS/MS; format: in vitro ADME; settings: reference compounds, 1 μM
# Method: (§1) The clearance and bioavailability of most medicines are strongly influenced by their first-pass metabolism in the liver. It is possible to estimate the relative hepatic “metabolic stability” in vitro by incubating compounds with cryopreserved hepatocytes and determining the initial vs. the final amount of the test compound in the incubation mixtures.
# (§2) The following procedure is an HPLC-MS/MS assay using pooled human cryopreserved hepatocyte suspension.
# (§3) Human hepatocytes: mixed gender and pool of 10
# (§4) Final cell density: 1 million (10^6) viable cells/mL
# (§5) Pooled cryopreserved hepatocytes are thawed, washed, and resuspended in Krebs-Heinslet buffer (pH 7.3). The reaction is initiated by adding the test compound (1 μM final concentration) into cell suspension and incubated in a final volume of 100 μL on a flat-bottom 96-well plate for 0 minute and 120 minutes, respectively, at 37° C./5% CO2. The reaction is stopped by adding 100 μL of acetonitrile into the incubation mixture. Samples are then mixed gently and briefly on a plate shaker, transferred completely to a 0.8 mL V-bottom 96-well plate, and centrifuged at 2550×g for 15 minutes at room temperature. Each supernatant (150 μL) is transferred to a clean cluster tube, followed by HPLC-MS/MS analysis on a Thermo Electron triple-quadrupole system.
# (§6) This assay was modified for half-life determination. In this case, the sampling time points are 0, 30, 60, 90, and 120 minutes.
# (§7) Four reference compounds (1 μM) were tested simultaneously with the test compounds.
# (§8) Samples are analyzed via (RP)HPLC-MS/MS using selected reaction monitoring (SRM). The HPLC conditions consist of an HP1100 binary pump with autosampler, a C-12 mixed-mode, 2×20 mm column, and a gradient.
# (§9) Peak areas corresponding to the test compound are recorded by HPLC-MS/MS. The metabolic stability, expressed as percent of the test compound remaining, is calculated by comparing the peak areas of the test compound at 2 hours to time zero. In case of half-life determination, the half-life is estimated from the slope of the initial linear range of the logarithmic curve of the test compound remaining (%) vs. time, assuming first order kinetics.
# [2] = solubility in pharmaceutically acceptable solvent systems, HPLC assay of filtrate; format: physicochemical
# Method: The solubilities of NUC-1031 and its diastereoisomers were determined in a range of pharmaceutically acceptable solvent systems. The protocol adopted was as follows:
# A small volume, 1-2 mL, of each solvent system was prepared and a weight of the compound in question was added. The solutions were stirred for approximately 4 hours and then […] membrane filtered. The concentration of the compound in question in the filtrate was then determined by HPLC assay.
# [3] = metabolic stability in pooled human cryopreserved hepatocyte suspension, HPLC-MS/MS; format: in vitro ADME; settings: both sexes, human, hepatocytes
# Method: as §1, §2, §3, §4, §5, §6, §7, §8, §9
# [4] = aqueous solubility of NUC-1031 (background statement); format: physicochemical; settings: regardless of salt content or pH
# [5] = 10% mixtures of polar organic solvents in water
# [6] = 50% PEG400 by volume in water, aqueous with cosolvent or surfactant or cyclodextrin, thermodynamic from solid, PEG400 (50%) by volume in water, read-out: Solubility
# [7] = 50% ethanol by volume in water, aqueous with cosolvent or surfactant or cyclodextrin, thermodynamic from solid, ETHANOL (50%) by volume in water, read-out: Solubility
# [8] = 50% propylene glycol by volume in water, aqueous with cosolvent or surfactant or cyclodextrin, thermodynamic from solid, PROPYLENE GLYCOL (50%) by volume in water, read-out: Solubility
# [9] = mixtures of polar organic solvents with water
Compound,stability with human hepatocytes [1],"solubility [2, 5]","solubility [2, 6]","solubility [2, 7]","solubility [2, 8]","solubility [2, 9]","half-life at 1 μM ([3]; pH 7.3, Half-Life 1st)","half-life at 1 μM ([3]; pH 7.3, Half-Life 2nd)","half-life at 1 μM ([3]; pH 7.3, Half-Life 3rd)",further results
"C=CCN1CC[C@]23c4c5ccc(O)c4O[C@H]2C(=O)CC[C@@]3(O)[C@H]1C5 [naloxone, reference compound]",relatively unstable,,,,,,,,,
"CCN(CC)CCN1C(=O)CN=C(c2ccccc2F)c2cc(Cl)ccc21 [flurazepam, reference compound]",relatively unstable,,,,,,,,,
"C[C@H](N[P@](=O)(OC[C@H]1O[C@@H](n2ccc(N)nc2=O)C(F)(F)C1O)Oc1ccccc1)C(=O)OCc1ccccc1 (stereo partly drawn) [compound 3, 2′-Deoxy-2′,2′-difluoro-D-cytidine-5′-O-[phenyl(benzyloxy-L-alaninyl)]-(S)-phosphate]",,significantly improved solubility,32100 µg/mL,34800 µg/mL,11300 µg/mL,sufficient solubility,0.675 h,0.608 h,0.583 h,"solubility ([2]; 10% PEG400 by volume in water, aqueous with cosolvent or surfactant or cyclodextrin, thermodynamic from solid, PEG400 (10%) by volume in water, read-out: Solubility): 460 µg/mL; solubility ([2]; 10% ethanol by volume in water, aqueous with cosolvent or surfactant or cyclodextrin, thermodynamic from solid, ETHANOL (10%) by volume in water, read-out: Solubility): 270 µg/mL; solubility ([2]; 10% propylene glycol by volume in water, aqueous with cosolvent or surfactant or cyclodextrin, thermodynamic from solid, PROPYLENE GLYCOL (10%) by volume in water, read-out: Solubility): 230 µg/mL; difference in solubility between (S)-epimer and (R)-epimer ([2]; in a number of the solvent mixtures tested): over 100 fold"
"C[C@H](N[P@@](=O)(OC[C@H]1O[C@@H](n2ccc(N)nc2=O)C(F)(F)[C@@H]1O)Oc1ccccc1)C(=O)OCc1ccccc1 [compound 4, 2′-deoxy-2′,2′-difluoro-D-cytidine-5′-O-[phenyl(benzyloxy-L-alaninyl)]-(R)-phosphate]",,substantially insoluble,270 µg/mL,690 µg/mL,110 µg/mL,substantially insoluble,7.86 h,> 2 h,> 2 h,"half-life at 1 μM ([3]; pH 7.3, Half-Life Mean): > 2 h"
C[C@H](NP(=O)(OC[C@H]1O[C@@H](n2ccc(N)nc2=O)C(F)(F)C1O)Oc1ccccc1)C(=O)OCc1ccccc1 (stereo partly shown) [NUC-1031],,,,,,,1.22 h,1.21 h,1.37 h,"solubility ([2]; organic solvent or mixture, thermodynamic from solid, solvent DMSO, read-out: Assay (solubility)): > 217000 µg/mL; solubility ([2]; organic solvent or mixture, thermodynamic from solid, solvent NMP, read-out: Assay (solubility)): > 207000 µg/mL; solubility ([2]; organic solvent or mixture, thermodynamic from solid, solvent PEG 400, read-out: Assay (solubility)): 385000 µg/mL; solubility ([2]; organic solvent or mixture, thermodynamic from solid, solvent Propylene glycol, read-out: Assay (solubility)): 371000 µg/mL; Appearance ([2]; solvent DMSO): Clear solution; Appearance ([2]; solvent Ethanol): Solubilised quickly, after 30; Appearance ([2]; solvent Glycerol): API evident; Appearance ([2]; solvent NMP): Clear solution; Appearance ([2]; solvent PEG 400): Precipitation evident after 120; Appearance ([2]; solvent Propylene glycol): Precipitation evident after 30; solubility in water [4]: essentially insoluble in water"
